The values below come from patent US12570642B2, “GLP-IR modulating compounds” (Gilead Sciences, Inc., priority 2021, dated 2026).

Molecules are shown by their SMILES.

Sequence of GLP-1R (P43220 24-463): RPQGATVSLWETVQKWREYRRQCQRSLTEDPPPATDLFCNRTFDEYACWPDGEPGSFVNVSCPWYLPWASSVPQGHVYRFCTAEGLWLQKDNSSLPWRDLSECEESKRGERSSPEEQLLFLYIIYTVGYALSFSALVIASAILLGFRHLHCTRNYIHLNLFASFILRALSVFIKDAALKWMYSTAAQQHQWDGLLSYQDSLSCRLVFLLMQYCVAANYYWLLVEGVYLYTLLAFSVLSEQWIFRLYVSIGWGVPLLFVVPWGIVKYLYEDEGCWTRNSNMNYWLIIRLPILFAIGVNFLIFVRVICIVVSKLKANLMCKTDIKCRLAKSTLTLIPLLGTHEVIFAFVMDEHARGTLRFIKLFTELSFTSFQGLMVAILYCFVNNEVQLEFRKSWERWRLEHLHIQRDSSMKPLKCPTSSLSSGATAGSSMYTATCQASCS

This experiment deals with GLP-1R (Homo sapiens, UniProt P43220). The experiment can be described thus: GLP-1R Activation - cAMP Assay. To be noted: cAMP increase in CHO cells stably expressing GLP-1R; each compound run on one of the two cAMP assays (Assay 1 or Assay 2, not specified). Type of experiment: cell-based. Summed up:
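CHO cells stably expressing GLP-1R, plated at 1,000 cells/well overnight, then equilibrated 1 h in HBSS with 20 mM Hepes and 0.1% BSA. Agonist added as 10-point dose response for 30 min at 37 °C. cAMP measured by HTRF (Cisbio Gs Dynamic kit); EC50 from sigmoidal fit.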
(In general: Cyclic AMP is a second messenger, typically raised through Gs and lowered through Gi signalling.)
As for `COc1nc(Cl)ccc1COc1cccc(-c2cc(F)c(Cc3nc4c(F)cc(C(=O)O)cc4n3C3COCC3(C)C)cc2F)n1` (centres unmarked) [Example 170, 2-(4-(6-((6-chloro-2-methoxypyridin-3-yl)methoxy)pyridin-2-yl)-2,5-difluorobenzyl)-1-(4,4-dimethyltetrahydrofuran-3-yl)-4-fluoro-1H-benzo[d]imidazole-6-carboxylic Acid], a half-maximal effect (EC50) was put at 0.227 nM.
Regarding `CC1(C)COC[C@H]1n1c(Cc2cc(F)c(-c3cccc(OCc4cnc(-n5ccnn5)cc4Cl)n3)cc2F)nc2c(F)cc(C(=O)O)cc21` [Example 171, (S)-2-(4-(6-((4-chloro-6-(1H-1,2,3-triazol-1-yl)pyridin-3-yl)methoxy)pyridin-2-yl)-2,5-difluorobenzyl)-1-(4,4-dimethyltetrahydrofuran-3-yl)-4-fluoro-1H-benzo[d]imidazole-6-carboxylic Acid], a half-maximal effect (EC50) was put at 0.05 nM.
Turning to `N#Cc1ccc(COc2cccc(-c3cc(F)c(Cc4nc5ccc(C(=O)O)cc5n4[C@H]4COC[C@H]4CF)cc3F)n2)c(F)c1` [Example 172], the response was half-maximal at 0.129 nM (EC50).
As for `CC1(C)COCC1n1c(Cc2cc(F)c(-c3cccc(OCc4cnc(-n5ccnn5)cc4Cl)n3)cc2F)nc2c(F)cc(C(=O)O)cc21` (centres unmarked) [Example 173, 2-(4-(6-((4-chloro-6-(1H-1,2,3-triazol-1-yl)pyridin-3-yl)methoxy)pyridin-2-yl)-2,5-difluorobenzyl)-1-(4,4-dimethyltetrahydrofuran-3-yl)-4-fluoro-1H-benzo[d]imidazole-6-carboxylic Acid], the response was half-maximal at 0.018 nM (EC50).
Take `CC1(C)COCC1n1c(Cc2cc(F)c(-c3cccc(OCc4cnc(-n5ccnc5)cc4Cl)n3)cc2F)nc2c(F)cc(C(=O)O)cc21` (centres unmarked) [Example 174, 2-(4-(6-((4-chloro-6-(1H-imidazol-1-yl)pyridin-3-yl)methoxy)pyridin-2-yl)-2,5-difluorobenzyl)-1-(4,4-dimethyltetrahydrofuran-3-yl)-4-fluoro-1H-benzo[d]imidazole-6-carboxylic Acid]: the response was half-maximal at 0.051 nM (EC50).
With `CC1(C)COCC1n1c(Cc2cc(F)c(-c3cccc(OCc4ccc(C(F)(F)F)cc4F)n3)cc2F)nc2c(F)cc(C(=O)O)cc21` (centres unmarked) [Example 175, 2-(2,5-difluoro-4-(6-((2-fluoro-4-(trifluoromethyl)benzyl)oxy)pyridin-2-yl)benzyl)-1-(4,4-dimethyltetrahydrofuran-3-yl)-4-fluoro-1H-benzo[d]imidazole-6-carboxylic Acid], a half-maximal effect (EC50) was put at 0.106 nM.
`CC1(C)COC[C@H]1n1c(Cc2cc(F)c(-c3ccc(F)c(OCc4ccc(-n5ccnn5)cc4)n3)cc2F)nc2c(F)cc(C(=O)O)cc21` [Example 177, (S)-2-(4-(6-((4-(1H-1,2,3-triazol-1-yl)benzyl)oxy)-5-fluoropyridin-2-yl)-2,5-difluorobenzyl)-1-(4,4-dimethyltetrahydrofuran-3-yl)-4-fluoro-1H-benzo[d]imidazole-6-carboxylic Acid]: the EC50 (usually the concentration giving half of the maximal effect) was 0.021 nM.
The result for `Cc1cc(Cc2nc3ccc(C(=O)O)cc3n2[C@@H]2COCC2(C)C)c(F)cc1-c1ccnc(OCc2ccc(C#N)cc2)n1` [Example 178, (S)-2-(4-(2-((4-cyanobenzyl)oxy)pyrimidin-4-yl)-2-fluoro-5-methylbenzyl)-1-(4,4-dimethyltetrahydrofuran-3-yl)-1H-benzo[d]imidazole-6-carboxylic Acid] reads 0.499 nM; that for `Cc1cc(Cc2nc3ccc(C(=O)O)cc3n2[C@@H]2COCC2(C)C)c(F)cc1-c1cccc(OCc2ccc(C#N)cc2)n1` [Example 179, (S)-2-(4-(6-((4-cyanobenzyl)oxy)pyridin-2-yl)-2-fluoro-5-methylbenzyl)-1-(4,4-dimethyltetrahydrofuran-3-yl)-1H-benzo[d]imidazole-6-carboxylic Acid], 0.064 nM.
`Cc1cc(Cc2nc3ccc(C(=O)O)cc3n2[C@@H]2COCC2(C)C)c(F)cc1-c1ccc(F)c(OCc2ccc(C#N)cc2)n1` [Example 180, (S)-2-(4-(6-((4-cyanobenzyl)oxy)-5-fluoropyridin-2-yl)-2-fluoro-5-methylbenzyl)-1-(4,4-dimethyltetrahydrofuran-3-yl)-1H-benzo[d]imidazole-6-carboxylic Acid] displayed an EC50 of 0.089 nM.
In the case of `CC1(C)COC[C@H]1n1c(Cc2cc(F)c(-c3ccc(F)c(OCc4ccc(-n5ccnn5)cc4)n3)cc2F)nc2ccc(C(=O)O)cc21` [Example 181, (S)-2-(4-(6-((4-(1H-1,2,3-triazol-1-yl)benzyl)oxy)-5-fluoropyridin-2-yl)-2,5-difluorobenzyl)-1-(4,4-dimethyltetrahydrofuran-3-yl)-1H-benzo[d]imidazole-6-carboxylic Acid] it was 0.025 nM; in that of `CC1(C)COC[C@H]1n1c(Cc2cc(F)c(-c3ccnc(OCc4ccc(-n5ccnn5)cc4)n3)cc2F)nc2ccc(C(=O)O)cc21` [Example 182, (S)-2-(4-(2-((4-(1H-1,2,3-triazol-1-yl)benzyl)oxy)pyrimidin-4-yl)-2,5-difluorobenzyl)-1-(4,4-dimethyltetrahydrofuran-3-yl)-1H-benzo[d]imidazole-6-carboxylic Acid], 0.178 nM; in that of `CC1(C)COC[C@H]1n1c(Cc2cc(F)c(-c3cccc(OCc4ccc(-n5ccnn5)cc4)n3)cc2F)nc2ccc(C(=O)O)cc21` [Example 183, (S)-2-(4-(6-((4-(1H-1,2,3-triazol-1-yl)benzyl)oxy)pyridin-2-yl)-2,5-difluorobenzyl)-1-(4,4-dimethyltetrahydrofuran-3-yl)-1H-benzo[d]imidazole-6-carboxylic Acid], 0.129 nM.
The result for `N#Cc1ccc(COc2cccc(-c3cc(F)c(Cc4nc5ccc(C(=O)O)cc5n4[C@@H]4COC[C@@H]4COC(F)F)cc3F)n2)c(F)c1` [Example 185, 2-(4-(6-((4-cyano-2-fluorobenzyl)oxy)pyridin-2-yl)-2,5-difluorobenzyl)-1-((3S,4R)-4-((difluoromethoxy)methyl)tetrahydrofuran-3-yl)-1H-benzo[d]imidazole-6-carboxylic Acid] reads 0.594 nM.
For the compound `CC1(C)COC[C@H]1n1c(Cc2cc(F)c(-c3cccc(OCc4ccc(-n5ccnn5)cc4)n3)cc2F)nc2c(F)cc(C(=O)O)cc21` [Example 186, (S)-2-(4-(6-((4-(1H-1,2,3-triazol-1-yl)benzyl)oxy)pyridin-2-yl)-2,5-difluorobenzyl)-1-(4,4-dimethyltetrahydrofuran-3-yl)-4-fluoro-1H-benzo[d]imidazole-6-carboxylic acid], the EC50 came out at 0.018 nM.
`N#Cc1ccc(COc2cccc(-c3cc(F)c(Cc4nc5ccc(C(=O)O)cc5n4[C@@H]4C[C@@H]5CC[C@H]4O5)cc3F)n2)c(F)c1` [Example 187, 1-((1R,2R,4S)-7-oxabicyclo[2.2.1]heptan-2-yl)-2-(4-(6-((4-cyano-2-fluorobenzyl)oxy)pyridin-2-yl)-2,5-difluorobenzyl)-1H-benzo[d]imidazole-6-carboxylic acid] returned an EC50 of 0.391 nM.
Take `CC1(C)COC[C@H]1n1c(Cc2cc(F)c(-c3ccc(F)c(OCc4ccc(C#N)cc4)n3)cc2F)nc2ccc(C(=O)O)cc21` [Example 188, (S)-2-(4-(6-((4-cyanobenzyl)oxy)-5-fluoropyridin-2-yl)-2,5-difluorobenzyl)-1-(4,4-dimethyltetrahydrofuran-3-yl)-1H-benzo[d]imidazole-6-carboxylic acid]: it took 0.032 nM to reach a half-maximal effect (EC50).
Turning to `N#Cc1ccc(COc2cccc(-c3cc(F)c(Cc4nc5ccc(C(=O)O)cc5n4[C@H]4COC[C@@H]4C4CC4)cc3F)n2)c(F)c1` [Example 189, 2-(4-(6-((4-cyano-2-fluorobenzyl)oxy)pyridin-2-yl)-2,5-difluorobenzyl)-1-((3R,4R)-4-cyclopropyltetrahydrofuran-3-yl)-1H-benzo[d]imidazole-6-carboxylic acid], a half-maximal response (EC50) required 0.149 nM.
The result for `N#Cc1ccc(COc2cccc(-c3cc(F)c(Cc4nc5ccc(C(=O)O)cc5n4[C@@H]4COC[C@H]4C4CC4)cc3F)n2)c(F)c1` [Example 190, 2-(4-(6-((4-cyano-2-fluorobenzyl)oxy)pyridin-2-yl)-2,5-difluorobenzyl)-1-((3S,4S)-4-cyclopropyltetrahydrofuran-3-yl)-1H-benzo[d]imidazole-6-carboxylic acid] reads 0.061 nM.
In the case of `N#Cc1ccc(COc2cccc(-c3cc(F)c(Cc4nc5ccc(C(=O)O)cc5n4[C@@H]4COC[C@@H]4C4CC4)cc3F)n2)c(F)c1` [Example 191, 2-(4-(6-((4-cyano-2-fluorobenzyl)oxy)pyridin-2-yl)-2,5-difluorobenzyl)-1-((3S,4R)-4-cyclopropyltetrahydrofuran-3-yl)-1H-benzo[d]imidazole-6-carboxylic acid] it was 0.353 nM.
Take `N#Cc1ccc(COc2cccc(-c3cc(F)c(Cc4nc5ccc(C(=O)O)cc5n4[C@H]4COC[C@H]4C4CC4)cc3F)n2)c(F)c1` [Example 192, 2-(4-(6-((4-cyano-2-fluorobenzyl)oxy)pyridin-2-yl)-2,5-difluorobenzyl)-1-((3R,4S)-4-cyclopropyltetrahydrofuran-3-yl)-1H-benzo[d]imidazole-6-carboxylic acid]: the midpoint of the response, the EC50, lay at 0.444 nM.
`CC1(C)COC[C@H]1n1c(Cc2cc(F)c(-c3ccnc(OCc4ccc(C#N)cc4)n3)cc2F)nc2ccc(C(=O)O)cc21` [Example 193, (S)-2-(4-(2-((4-cyanobenzyl)oxy)pyrimidin-4-yl)-2,5-difluorobenzyl)-1-(4,4-dimethyltetrahydrofuran-3-yl)-1H-benzo[d]imidazole-6-carboxylic acid]: the EC50 was 0.132 nM.
With `CC1(C)COC[C@H]1n1c(Cc2cc(F)c(-c3ccnc(OCc4ccc(C#N)cc4)n3)cc2F)nc2c(F)cc(C(=O)O)cc21` [Example 194, (S)-2-(4-(2-((4-cyanobenzyl)oxy)pyrimidin-4-yl)-2,5-difluorobenzyl)-1-(4,4-dimethyltetrahydrofuran-3-yl)-4-fluoro-1H-benzo[d]imidazole-6-carboxylic acid], the EC50 amounted to 0.265 nM.
